Data: patent US7207289B2, “Method of feeding the cattle with feed additives that increases beef production and reduces liver abscess” (Intervet International B.V., priority 2004, dated 2007)

What was measured:
cattle = conditions: cited from earlier work
steers = assay: Study V-0238-0017: effects of Rumensin plus Tylan and zilpaterol on liver abscess rates in feedlot steers; assay type: in vivo, cattle
Description: In study number V-0238-0017 a total of 3,945 steers were used to test the effects of Rumensin® plus Tylan® and zilpaterol on feedlot performance, liver abscess rates, and carcass traits. The inventors discovered that Tylan® and Rumensin® could be removed from the diet for the last 30 days to feed zilpaterol without negatively affecting liver abscess rates. In fact it was discovered that zilpaterol decreased the incidence of liver abscesses.
Study Number V-0238-0017, Effects of Zilpaterol on Liver Abscesses

steers and heifers = assay: Zilpaterol efficacy studies V-0238-0019, V-0238-0020, V-0238-0021 (pooled analysis): liver abscesses and feed intake; assay type: in vivo, cattle
Description: All of these cattle had been fed Tylan® up to the last 20 to 40 days on feed at which time Tylan® was removed and cattle were either fed a control diet without Tylan®, Rumensin® or zilpaterol or cattle were fed a treatment diet containing just zilpaterol. While the mechanism by which zilpaterol decreases liver abscess is not fully clear at this time, it seems that zilpaterol functions to decrease liver abscesses by decreasing feed intake. Because the liver abscesses discovered at slaughter are formed during the last ˜60 days or less on feed and this is the same time zilpaterol is fed, a decrease in feed intake would result in a decrease in acid production and possibly a decrease in rumen wall lesions and rumenitis.
Summary of Zilpaterol Efficacy Studies (Pooled Analysis), Study Numbers, V-0238-0019, V-0238-0020, and V-0238-0021 on Liver Abscesses and Feed Intake

| SMILES | feed intake and dressing percentage (cattle; Laudert and Vogel (1994)) | gain and feed to gain ratio (cattle; Laudert and Vogel (1994)) | average daily gain (cattle; Potter et al. (1985)) | feed intake (cattle; Potter et al. (1985)) | liver abscesses being reduced (cattle; cattle treated with Tylan, typical) | Live Abscess, % (steers; 166-day study, 3,945 steers, 10 pens per treatment, zilpaterol fed for the last 30 days on feed) | incidence of liver abscesses (effect in words) (steers; study V-0238-0017, steers) | Average Daily Dry Matter Intake, lbs. (steers and heifers; pooled analysis of three studies, zilpaterol for the last 20 or 40 days) | % of Livers Condemned for Abscesses (steers and heifers; pooled, 957 animals, Tylan removed for the last 20 to 40 days, diet containing just zilpaterol) | liver abscesses (effect in words) (steers and heifers; steers and heifers supplemented for 20 or 40 days) |
| --- | --- | --- | --- | --- | --- | --- | --- | --- | --- | --- |
| CC[C@H]1OC(=O)C[C@@H](O)[C@H](C)[C@@H](O[C@@H]2O[C@H](C)[C@@H](O[C@H]3C[C@@](C)(O)[C@@H](O)[C@H](C)O3)[C@H](N(C)C)[C@H]2O)[C@@H](CC=O)C[C@@H](C)C(=O)/C=C/C(C)=C/[C@@H]1CO[C@@H]1O[C@H](C)[C@@H](O)[C@@H](OC)[C@H]1OC [Tylan, Tylosin] | only minor effects | improved | improved | no effect | 63 to 71% |  |  |  |  |  |
| CC(C)NC1CCn2c(=O)[nH]c3cccc(c32)C1O (stereo not shown) [Zilpaterol] |  |  |  |  |  | 13.29% | decreased | 18.69 lbs. | 19.1% | significantly decreased |
